Values after ≈ are worked out from the molar mass of the structure shown. Where two headings read alike, the source gives them in different places.
Key:
Assay type in all cases: cell-based
Streptococcus pyogenes = test: Antibacterial activity test, standard dilution method (MIC); conditions: 24 hr and 48 hr, trypticase soy broth, 35° C.
Experimental: (§1) The following antibacterial activity test of WH-21091 was conducted to illustrate the antibacterial activity of WH-21091. Standard dilution method was adopted, and the measurement was conducted under 35° C. After culturing for 24 hours, the minimum inhibition concentrations (MICs) of WH-21091 were obtained.

[1] = tested on: Staphylococcus epidermidis; test: as above; conditions: 24 hr and 48 hr, trypticase soy broth, 35° C.
Experimental: as §1

Escherichia coli = test: as above; conditions: 24 hr and 48 hr, trypticase soy broth, 35° C.
Experimental: as §1

[2] = tested on: S. aureus MSRA (clinical isolates of methicilllin-resistant strains); test: as above; conditions: Staphylococcus aureus
Experimental: as §1

Pseudomonas aeruginosa = test: as above; conditions: 24 hr and 48 hr, trypticase soy broth, 35° C.
Experimental: as §1

Enterococcus faecalis = test: as above; conditions: 24 hr and 48 hr, trypticase soy broth, 35° C.
Experimental: as §1

[3] = tested on: breast cancer MCF-7 cells; test: In vitro antitumor activity test (method of Skehan et al.); conditions: Homo sapiens, MCF7; MCF-7 breast cancer cells
Experimental: (§2) Following the method described by Skehan et al. (1990), in vitro antitumor activity tests of WH-21091 on human lung cancer H460, breast cancer MCF-7 and cervix cancer Hela cells were conducted.

cervix cancer Hela cells = test: as above; conditions: Homo sapiens
Experimental: as §2

[4] = tested on: human lung cancer H460 cells; test: as above; conditions: NCI-H460
Experimental: as §2

MIC ([2]; S. aureus MSRA, clinical isolates of methicilllin-resistant strains, 24 hr and 48 hr, trypticase soy broth, 35° C., read-out: MIC)	IC50 [3]	IC50 (cervix cancer Hela cells)	IC50 [4]	SMILES	MIC (Streptococcus pyogenes)	MIC [1]	MIC (Escherichia coli)	MIC [2]	MIC (Pseudomonas aeruginosa)	MIC (Enterococcus faecalis)
–	–	–	–	CC[C@H]1OC(=O)[C@H](C)[C@@H](O[C@H]2C[C@@](C)(OC)[C@@H](O)[C@H](C)O2)[C@H](C)[C@@H](O[C@@H]2O[C@H](C)C[C@H](N(C)C)[C@H]2O)[C@](C)(O)C[C@@H](C)C(=O)[C@H](C)[C@@H](O)[C@]1(C)O [erythromycin, reference compound]	0.03 µg/mL (≈ 0.0409 µM)	0.25 µg/mL (≈ 0.341 µM)	1 µg/mL (≈ 1.36 µM)	> 32 µg/mL	> 32 µg/mL	> 32 µg/mL
4 µg/mL (≈ 9.4 µM)	0.81 µg/mL (≈ 1.9 µM)	0.24 µg/mL (≈ 0.564 µM)	0.1 µg/mL (≈ 0.235 µM)	CC1CC(C)CC(C(O)Cc2cccc(O)c2C(=O)O)NC(=O)C(O)C(O)C(O)C1 (stereo not drawn) [WH-21091]	4 µg/mL (≈ 9.4 µM)	8 µg/mL (≈ 18.8 µM)	4 µg/mL (≈ 9.4 µM)	–	> 32 µg/mL	32 µg/mL (≈ 75.2 µM)

Source: US8680087B2, “Macrocyclic amides, pharmaceutical compositions, preparation methods and uses thereof” (Yuxi Winhey Bio-Tech Co., Ltd., priority 2009, dated 2014)
